We go through 1 compound from patent publication US20250129101A1, “Compound, Pharmaceutical Composition Comprising the Same and Method for Treating Cancer Using the Same” (NATIONAL TSING HUA UNIVERSITY, priority 2023, published 2025).

SMILES strings stand for the structures. Like-named read-outs stand apart in the source and are kept apart here.

One assay deals with 4T1 R8 cells. Briefly: Cell viability assay, 4T1 R8 cells. It is filed as cell-based, mouse. The protocol: (§1) MCF-7, MDA-MB-231, MDA-MB-468, Hs578T, 4T1, and HeLa cell lines stably expressing H2B-mCherry and eGFP-tubulin (kindly provided by Dr. Anthony A. Hyman, Max-Planck-Institute for Molecular Cell Biology and Genetics, Dresden, Germany) were cultured in high-glucose Dulbecco's Modified Eagle Medium (DMEM). SK-BR-3 cells were cultured in McCoy's Modified 5a Medium. Hs578T cells were cultured in high-glucose DMEM supplemented with an additional 0.01 mg/mL bovine insulin. […] All mentioned media were supplemented with 10% fetal bovine serum (Gibco) and 1% Penicillin/Streptomycin (Corning), and cells were incubated at 37° C. in a humidified atmosphere containing 5% CO2. HEK293 cells were cultured in HE300 medium (GMEP incorporated, Japan) and maintained in suspension culture with 125 rpm and 8% CO2.
(§2) The cancer cells were cultured in a 96-well plate at a confluence of 1000-2000 cells/well with indicated drugs for specific days. When the time was up, the culture medium in the plate was aspirated and replaced with a prepared CellTiter-Glo reagent/DMEM mixture (1:1 mix of CellTiter-Glo reagent and serum-supplemented DMEM). After incubation for 10 min, the luminescence (proportional to the number of living cells) was measured with an ELISA plate reader to determine the cell viability.

Assay [1] relates to 4T1 S1 cells. Nature of the assay: Time-lapse imaging of mitotic progression, 4T1 S1 cells. It is filed as cell-based, mouse. To be noted: paclitaxel (400 nM, FIG. 6D). The procedure:
To investigate the role of KIF2C in cell cycle progression, 4T1 cells were cultured in the 4-well chamber slide with about 50% confluence. The culture medium was replaced with a CO2-independent medium (Gibco) supplemented with 10% fetal bovine serum (Biological Industries) and 1% penicillin-streptomycin (Biowest). Then, each well of the chamber slide was treated with indicated drugs, such as DMSO, KIF2C inhibitors, or chemotherapy drugs. After that, the chamber slide was maintained in the microscope stage incubator with the supplement of humidified air with 5% CO2 at 37° C. Multiple-positional time-lapse imaging was performed using an automated Leica DM16000 inverted microscope equipped with HCX PL FL 20×/0.4 and EMCCD camera (Andor Luca R, Belfast, UK). Sequential differential interference contrast (DIC) images of cells obtained at indicated intervals were further analyzed using Metamorph software (Molecular Devices).

Assay [2] relates to 4T1 S1 cells. Nature of the assay: Cell viability assay, 4T1 S1 cells. Format: cell-based. Particulars: Mus musculus, 72 hr, read-out: IC50, single treatment. The protocol: as §1, §2
In a further assay the test system is 4T1 cells. Briefly: In vivo tumor growth inhibition, 4T1 syngeneic model. Set-up: species or system mouse. To be noted: 4T1 tumors, BALB/c mice, paclitaxel 5 mg/kg intraperitoneally, 5on/2off two cycles. The protocol:
(§3) The mice were housed at the National Health Research Institute (NHRI) Animal Center in accordance with the Institutional Animal Care and Use Committee procedures and guidelines. The 4T1-derived cells, including 4T1, 4T1 R4, and 4T1 R8, used for implantation were harvested during log phase growth and resuspended in phosphate-buffered saline. Each mouse was injected s.c. in the right flank with 5×10^5 cells. After tumor size reached 60-100 mm 3 (D1), mice were divided into groups and received treatment with vehicle or different compounds alone or in combinations. Tumor size, in mm 3, was measured twice per week and calculated from Tumor volume=(w 2×1)/2, where w=width and 1=length in mm of the tumor. The values of tumor size were expressed as mean±SEM.

Another assay relates to 4T1 R4. Nature of the assay: In vivo tumor growth inhibition, 4T1 R4 syngeneic model. Set-up: species or system mouse. To be noted: R4 tumors, BALB/c mice, paclitaxel 15 mg/kg intraperitoneally, 5on/2off two cycles. The procedure:
as §3

A further assay concerns 4T1 R4 cells. Nature of the assay: Cell viability assay, 4T1 R4 cells. It is filed as cell-based, mouse. The protocol:
as §1, §2

The test system of assay [3] is 4T1 S1 cells. Nature of the assay: Colony formation assay, 4T1 S1 cells. It is filed as cell-based, mouse. Particulars: 400 nM paclitaxel. The procedure: To assess the long-term survival of breast cancer cell lines following the treatment of KIF2C knockdown or inhibition, the cells trypsinized into single-cell suspension were homogeneously seeded in 6-well cell culture plates at a density of 5000 cells per dish, supplemented with 2× complete medium (50% 4×DMEM, 20% FBS, 2% penicillin-streptomycin, ddH2O, and 2× glutaMAX™), agarose (0.6% for bottom agar layer; 0.3% for top cell layer), ddH2O, and DMEM. After incubation for 24 hr, cells were treated with indicated drugs, such as DMSO, KIF2C inhibitors, or chemotherapy drugs, and then cultured at 37° C. incubator in an atmosphere of humidified air with 5% CO2 for a further 14-30 days. When the cell colonies grew to appropriate sizes, the culture mediums were replaced with PBS for washing. After that, the plates were stained with 10% crystal violet and analyzed using Image J.

A further assay relates to MDA-MB-231 R. Nature of the assay: Cell viability assay, chemoresistant MDA-MB-231 R cells. It is filed as cell-based. Particulars: MDA-MB-231 R versus S cells, 72 hr paclitaxel. The protocol:
as §2
(§4) The expression levels of KIF2A, KIF2B, and KIF2C in these cell lines were compared using Western blotting.

Assay [4] has as its system HeLa cells expressing H2B-mCherry and eGFP-tubulin. Nature of the assay: Live-cell imaging of intracellular microtubule distribution. Format: cell-based. The protocol: For the microtubule distribution analysis, HeLa cell line stably expressing H2B-mCherry and eGFP-tubulin (a kind gift from Anthony A. Hyman, Max-Planck-Institute for Molecular Cell Biology and Genetics, Dresden, Germany) were treated with KIF2C inhibitors (10 μM DHTP or 10 μM 7S9) during imaging. Live-cell imaging was conducted on a Nikon T1 inverted fluorescence microscope (Nikon) with a 60× oil objective (Nikon), a Prime camera (Photometrics), and 37° C., 5% CO2 heat stage (Live Cell Instrument). Microtubule morphological changes were imaged at 3-min intervals. Images were obtained using ImageJ software processed with Gaussian Blur to remove the noise.

In the next assay the test system is 4T1 R cells. Briefly: Cell viability assay, chemoresistant 4T1 R cells. Format: cell-based, mouse. To be noted: 4T1 R versus S cells, 72 hr paclitaxel. The protocol: as §2, §4
The mark [5] stands for this setting: 72 hr, MTA with 2 μM 7S9, read-out: IC50 (nM), Combination.
[6] abbreviates: Mus musculus, 72 hr, drug alone, read-out: IC50 (nM), Single.
Where [7] appears, read: Mus musculus, read-out: Paclitaxel IC50 (nM), C4 combination, with 10 μM C4.

The IC50 is the concentration that inhibits the measured activity by half. Regarding `CC(=O)O[C@H]1C(=O)[C@@]2(C)[C@H]([C@H](OC(=O)c3ccccc3)[C@]3(O)C[C@H](OC(=O)[C@H](O)[C@@H](NC(=O)c4ccccc4)c4ccccc4)C(C)=C1C3(C)C)[C@]1(OC(C)=O)CO[C@@H]1C[C@@H]2O` [Paclitaxel, paclitaxel], the IC50 stood at 6.1 nM in the assay on 4T1 R8 cells (setting [5]); 1120 nM in the assay with 4T1 R8 cells (setting [6]); 157 nM in the assay on 4T1 R8 cells (setting [7]); 62 nM in the assay with 4T1 S1 cells [2]; 6.4 nM in the assay on 4T1 R4 cells (setting [5]); 1540 nM with 4T1 R4 cells (setting [6]). Besides, in the assay on 4T1 R4 cells (setting [7]), the IC50 was determined as 217 nM. In addition, the “cells died in mitosis” value with 4T1 S1 cells [1] was “Approximately 40%”. Also, the tumor growth inhibition is 31.3% with 4T1 cells and 41.7% in the assay on 4T1 R4. Also, the “suppression of colony formation” value in the assay with 4T1 S1 cells [3] worked out at 80%. In addition, the increase in chemoresistance in the assay on MDA-MB-231 R is 2.5 fold; with 4T1 R cells, 11.8 fold. In addition, in assay [4], the “intracellular microtubule distribution phenotype (in words)” value was “significant accumulation of bundled microtubules at the cell periphery”.
